Source: ChEMBL document CHEMBL5726496, “Piperidine derivatives as HDAC1/2 inhibitors” (2017)

Biological target: Histone deacetylase 1 (Homo sapiens, UniProt Q13547)
Assay: Enzyme Assay: Compounds for testing were diluted in DMSO to 50 fold the final concentration and a ten point three fold dilution series was made. The compounds were diluted in assay buffer (50 mM HEPES, pH 7.4, 100 mM KCl, 0.001% Tween-20, 0.05% BSA, 20 μM tris(2-carboxyethyl)phosphine) to 6 fold their final concentration. The HDAC enzymes (purchased from BPS Biosciences) were diluted to 1.5 fold their final concentration in assay buffer and pre-incubated with the compounds for 24 hours prior to addition of the substrate.

Histone deacetylase 1, sequence (Q13547 whole entry): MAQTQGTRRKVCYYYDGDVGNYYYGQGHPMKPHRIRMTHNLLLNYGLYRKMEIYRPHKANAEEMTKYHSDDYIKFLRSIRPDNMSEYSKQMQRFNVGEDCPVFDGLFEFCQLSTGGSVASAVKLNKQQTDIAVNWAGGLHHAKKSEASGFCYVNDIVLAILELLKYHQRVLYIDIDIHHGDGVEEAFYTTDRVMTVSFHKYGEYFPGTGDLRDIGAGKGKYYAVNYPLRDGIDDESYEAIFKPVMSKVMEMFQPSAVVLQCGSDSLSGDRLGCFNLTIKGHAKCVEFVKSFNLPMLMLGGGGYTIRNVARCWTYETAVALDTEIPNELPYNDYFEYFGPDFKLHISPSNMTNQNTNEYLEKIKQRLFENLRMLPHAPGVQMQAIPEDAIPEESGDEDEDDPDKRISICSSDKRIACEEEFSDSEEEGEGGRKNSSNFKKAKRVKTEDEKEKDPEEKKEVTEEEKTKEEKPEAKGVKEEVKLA

IC50 [µM] | SMILES
0.048 | CN(c1ncc(C(=O)Nc2cc(-c3ccccc3)ccc2N)cn1)C1CCN(C(=O)Cc2c[nH]c3ccccc23)CC1
0.022 | Nc1ccc(-c2ccccc2)cc1NC(=O)c1cnc(NC2CCN(C(=O)Cc3c[nH]c4ccccc34)CC2)nc1
0.014 | CC1(Nc2ncc(C(=O)Nc3cc(-c4ccccc4)ccc3N)cn2)CCNCC1
